In patent US9226905B2 (SAMSUNG ELECTRONICS CO., LTD., priority 2011, dated 2016):

Columns and labels:
bacterial growth = assay: Bacterial growth inhibitory activity of autoclaved DDS; format: cell-based; details: DDS added to bacterial medium and autoclaved, compared with control
Experimental: Specifically, DDS was added to a bacterial medium and autoclaved, and then compared with a control.

grip strength of mice = assay: Measurement of grip strength; format: in vivo, C57BL/6J mice; details: 2 mg/kg, 3 months
Experimental: To measure the grip strength of the mice, a grip strength meter (Bioseb) was used. The grip strength of the mice was measured by positioning the mice to grab the grid plate with the forelimbs, slowly pulling the tail in a horizontal direction, and determining the value at the time at which the forelimbs were detached from the grid.

[1] = tested on: soleus (SOL) and extensor digitorum longus (EDL) muscle weight; assay: Muscle weight of SOL and EDL; format: in vivo, C57BL/6J mice; details: aged mice (23-month-old and 30-month-old), female and male, 2 mg/kg, 3 months
Experimental: (§1) In order to separate muscle from the mice, the mice were anesthetized by injection with sodium pentobarbital (100 mg/kg body weight). One soleus (SOL) and one extensor digitorum longus (EDL) were carefully separated from the hindlimb of each mouse, so that the muscle was not damaged, and the weight of each of the separated muscles was measured.

[2] = tested on: gastrocnemius (GA) and tibialis anterior (TA) muscle weight; assay: Muscle weight of GA and TA; format: in vivo, C57BL/6J mice; details: aged mice (23-month-old and 30-month-old), female and male, 2 mg/kg, 3 months
Experimental: as §1, with “bodyweight).” for “body weight).”, “gastrocnemius (GA)” for “soleus (SOL)”, “tibialis anterior (TA)” for “extensor digitorum longus (EDL)”

[3] = tested on: mouse muscles (SOL and EDL); assay: Measurement of twitch isometric force; format: in vivo, C57BL/6J mice; details: SOL and EDL separated from treated mice, 0.2 Hz (100V) twitch stimulation
Experimental: One end of the tendons was anchored to a tissue bath, which was filled with Ringer's solution and to which oxygen was smoothly supplied, and the other end was anchored to a FT03 isometric force transducer (Grass instruments, West Warwick, USA). The twitch and tetanus of the muscle were adjusted by the intensity of electric stimulation. The muscle was stabilized in Ringer's solution for 10 minutes, and then an experiment for muscle contraction function was carried out. To maximize the function of the muscle, the length of the muscle showing the highest response at 0.2 Hz (100V), twitch stimulation, was measured and assigned as Lo.

[4] = tested on: mouse muscles (SOL and EDL); assay: Measurement of tetanus isometric force; format: in vivo, C57BL/6J mice; details: SOL 150 Hz, 100V, 800 ms, EDL 100 Hz, 400 ms
Source text: In the muscle contraction stimulation system, SOL muscle formed the peak plateau under the conditions of 150 Hz, 100 V and 800 ms. […] In this Example, the mice used in Example 6 were used. The mice were rested for a sufficient time after twitch stimulation, and then tetanic stimulation was applied to the mice. As stimulation at the time of formation of a stable graph in which the peak forms the plateau, 150 Hz (100V, 800 ms stimulation time) was used for Soleus, and 100 Hz (100V, 400 ms stimulation time) was used for EDL. Each of these values was used as the peak Isometric force for each muscle, and the results are plotted in unit of mN and shown in FIG. 9.

[5] = mouse, in vivo, 2 mg/kg
Caenorhabditis elegans = details: reported; cited from earlier work
[6] = tested on: blood creatine kinase level; assay: Measurement of blood creatine kinase (CK) level; details: administered for 3 months
[7] = Water intake of mice on administration of autoclaved DDS; details: male mice, at 4-day intervals for 3 months
[8] = female mice, vs negative control

Row | SMILES | bacterial growth inhibitory activity (bacterial growth) | grip strength (grip strength of mice; 18-month-old female mice) | grip strength (grip strength of mice; 23-month-old or older female mice) | grip strength (grip strength of mice; male mice) | weight of EDL [1] | weight of SOL [1] | weight of GA [2] | weight of TA [2] | muscle twitch force (reduced with aging) [3] | muscle tetanic force (reduced with aging) [4] | water intake vs control group [5] | increase of life span of Caenorhabditis elegans (Caenorhabditis elegans) | blood creatine kinase level ([6]; 18-month-old or older mice, 2 mg/kg) | blood creatine kinase level [6, 8] | water intake [7]
1 | Nc1ccc(S(=O)(=O)c2ccc(N)cc2)cc1 [DDS, diaminodiphenylsulfone] | maintained | not distinct | significantly restored | increased | restored | restored | restored | restored | effectively restored | effectively restored | did not significantly differ | 20-30% | effectively decreases | significantly reduced | 
2 | CC(C)(C)NCC(O)c1cc(Cl)c(N)c(Cl)c1 (stereo not shown) [Clenbuterol] |  |  |  |  |  |  |  |  |  |  |  |  |  | equal to or higher than that of the negative control | increased
